Results: ChEMBL document CHEMBL1201862, “PubChem BioAssay data set” (2004)
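A five-concentration, 48-hour dose response in 96-well plates underlies each endpoint, interpolated linearly between surrounding concentrations. GI50 marks 50% less growth.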 The source made the active and inactive calls. Cut-off read from the data, not from the text of the source: active = GI50 up to about 1.1 µM and inactive = higher.

Legend:
Assay in all cases: DTP human tumour cell line panel, 48 h
[1] = tested on: A549
[2] = tested on: K562
[3] = tested on: MOLT-4
[4] = tested on: OVCAR-4
[5] = tested on: EKVX
[6] = tested on: LOX IMVI
[7] = tested on: SN12C
[8] = tested on: SR
[9] = tested on: NCI/ADR-RES
[10] = tested on: HL-60
[11] = tested on: OVCAR-5
[12] = tested on: SNB-19
[13] = tested on: IGROV-1
[14] = tested on: SK-MEL-5
[15] = tested on: HOP-62
[16] = tested on: SK-MEL-2
[17] = tested on: SF-539
[18] = tested on: SK-MEL-28
[19] = tested on: SK-OV-3
[20] = tested on: TK-10

Row | SMILES | GI50 [1] | GI50 [2] | GI50 [3] | GI50 [4] | GI50 [5] | GI50 [6] | GI50 [7] | GI50 [8] | GI50 [9] | GI50 [10] | GI50 [11] | GI50 [12] | GI50 [13] | GI50 [14] | GI50 [15] | GI50 [16] | GI50 [17] | GI50 [18] | GI50 [19] | GI50 [20]
1 | CC(=O)NC1C(OCc2ccccc2)OC(CO)C(O)C1OCC(=O)N1CCCC1C(=O)NC(CCC(=O)NCCCCCNc1c2ccccc2nc2cccc([N+](=O)[O-])c12)C(N)=O (stereo not given) | 0.0134 µM (active) | 0.00366 µM (active) | 0.0561 µM (active) | 0.0982 µM (active) | 0.148 µM (active) | 0.166 µM (active) | 0.011 µM (active) | 0.281 µM (active) | 0.0726 µM (active) | 0.0221 µM (active) | 0.0231 µM (active) | 0.028 µM (active) | 0.232 µM (active) | 0.00853 µM (active) | 0.017 µM (active) | 0.019 µM (active) | 0.0456 µM (active) | 0.0307 µM (active) | 0.0869 µM (active) | 0.0508 µM (active)
2 | N=C1/C(=C/c2ccco2)C(=O)N=C2SC=NN12 | > 100 µM (inactive) | > 100 µM (inactive) | > 100 µM (inactive) | > 100 µM (inactive) | > 100 µM (inactive) | > 100 µM (inactive) | > 100 µM (inactive) | > 100 µM (inactive) | > 100 µM (inactive) | > 100 µM (inactive) | > 100 µM (inactive) | > 100 µM (inactive) | > 100 µM (inactive) | > 100 µM (inactive) | > 100 µM (inactive) | > 100 µM (inactive) | > 100 µM (inactive) | > 100 µM (inactive) | > 100 µM (inactive) | > 100 µM (inactive)
3 | CCc1ccccc1NC(=O)C(C#N)C1=C(Cl)C(=O)c2ccccc2C1=O (stereo not given) | 21.9 µM (inactive) | 8.04 µM (inactive) | 8.73 µM (inactive) | 13.6 µM (inactive) | 17.1 µM (inactive) | 13.2 µM (inactive) | 13.1 µM (inactive) | 21.6 µM (inactive) | 16.7 µM (inactive) | 26.2 µM (inactive) | 18.6 µM (inactive) | 25.4 µM (inactive) | 12.6 µM (inactive) | 15.3 µM (inactive) | 19.1 µM (inactive) | 17.3 µM (inactive) | 18.9 µM (inactive) | 16.9 µM (inactive) | 36.6 µM (inactive) | 18.7 µM (inactive)
4 | CSc1nc2ccccc2c(=O)n1-c1cccc(C)c1 | 94.2 µM (inactive) | 33 µM (inactive) | 28.8 µM (inactive) | 86.7 µM (inactive) | 73.6 µM (inactive) | 53.1 µM (inactive) | > 100 µM (inactive) | 15.7 µM (inactive) | 48.4 µM (inactive) | 2.58 µM (inactive) | > 100 µM (inactive) | > 100 µM (inactive) | 39.2 µM (inactive) | 21.9 µM (inactive) | > 100 µM (inactive) | 70.5 µM (inactive) | 78.9 µM (inactive) | > 100 µM (inactive) | > 100 µM (inactive) | > 100 µM (inactive)
